The source made the active and inactive calls. The rule behind the calls is not given here.
The compounds below were run on Osteoclast (assay: Bone resorption activity assessed as inhibition of PGE2-stimulated pit formation in ddY mouse osteoclasts).
Type: functional, cell-based

| Compound | Activity |
| --- | --- |
| O=C/C=C1\OC(/C=C/c2ccccc2)=Nc2c1oc1ccc(Br)cc21 | inactive |
| CCOC(=O)/C=C/C=C1\OC(/C=C/c2ccccc2)=Nc2c1oc1ccc(Br)cc21 | Active |
| C[C@]12CC[C@@H]3c4ccc(O)cc4CC[C@H]3[C@@H]1CC[C@@H]2O | Active |

Reference: ChEMBL document CHEMBL1139711, “A novel oxazine ring closure reaction affording (Z)-((E)-2-styrylbenzo[b]furo[3,2-d][1,3]oxazin-4-ylideno)acetaldehydes and their anti-osteoclastic bone resorption activity” (Bioorg Med Chem Lett, 2006)
